This note sets out measurements from the supplement of paper PMC3621838.

± gives the standard deviation of the averaged measurements.

The subject of this data set is HEK293 NF-kB-luciferase reporter cells. Briefly: NF-kB luciferase reporter activity, robust Z-score vs plate median (robust Z-score (log luminescence)); higher = stronger NF-kB reporter activation. As to conditions: TNF treatment time 8.5 h, transfection time 72 h. The procedure: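 Primary screen of an Ambion Pre-miR miRNA mimic library (miRBase v8.0, 1.6 pmol/well, 384-well, duplicate) reverse-transfected into HEK293 cells stably expressing a 5x NF-kB firefly luciferase reporter. After 72 h the cells were treated with vehicle or TNF (40 ng/mL) for 8.5 h and luminescence was read (BriteLite). Raw luminescence was log-transformed and converted to a robust Z-score per plate: (x - plate median)/plate MAD. Sequence given is the mature miRNA strand of the double-stranded mimic.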

UGAAACAUACACGGGAAACCUCUU: the “NF-kB luciferase reporter activity” value (TNF 0 ng/mL) came out at 0.49 ± 0.56 and the “NF-kB luciferase reporter activity” value (TNF 40 ng/mL) is -0.403 ± 0.11.
For UGAAGGUCUACUGUGUGCCAG, in that order: -0.779 ± 1.1 and -1.55 ± 0.32.
For UGAGAACUGAAUUCCAUAGGCU, in that order: -1.29 ± 0.15 and 0.439 ± 0.12.
For UGAGGUAGGAGGUUGUAUAGU, in that order: -0.314 ± 0.58 and -0.881 ± 0.37.
As for UGAUUGGUACGUCUGUGGGUAGA, the “NF-kB luciferase reporter activity” value runs as follows: (TNF 0 ng/mL) -0.152 ± 0.091; (TNF 40 ng/mL) -0.9703 ± 0.0044.
For UGAUUGUAGCCUUUUGGAGUAGA, in that order: -1.51 ± 0.46 and -0.927 ± 0.034.
For UGCUGACUCCUAGUCCAGGGC, in that order: -1.7 ± 0.2 and -3.27 ± 0.18.
As for UGCUUCCUUUCAGAGGGU, the “NF-kB luciferase reporter activity” value was 1.34 ± 0.039 (TNF 0 ng/mL) and 0.941 ± 0.075 (TNF 40 ng/mL).
For UGGAGAGAAAGGCAGUUC, in that order: 0.465 ± 0.4 and 0.268 ± 0.031.
Consider UGGUAGACUAUGGAACGUA, for which the “NF-kB luciferase reporter activity” value worked out at 0.274 ± 0.8 (TNF 0 ng/mL) and 0.0556 ± 0.21 (TNF 40 ng/mL).
As to UGGUUGACCAUAGAACAUGCGC, the “NF-kB luciferase reporter activity” value (TNF 0 ng/mL) is -0.133 ± 0.5 and the “NF-kB luciferase reporter activity” value (TNF 40 ng/mL) was -2.27 ± 0.2.
The like results for UGGUUUACCGUCCCACAUACAU were, in that order, -0.822 ± 0.38 and 0.367 ± 0.064.
For UGUCUGCCCGCAUGCCUGCCUCU, in that order: 1.07 ± 0.88 and 0.822 ± 0.046.
As to UGUCUUGCAGGCCGUCAUGCA, the “NF-kB luciferase reporter activity” value by setting is: (TNF 0 ng/mL) 1.79 ± 0.31; (TNF 40 ng/mL) -0.465 ± 0.12.
The like results for UGUGACAGAUUGAUAACUGAAA were, in that order, -0.287 ± 0.28 and -2.016 ± 0.016.
The like results for UGUUUGCAGAGGAAACUGAGAC were, in that order, 1.44 ± 0.076 and -1.26 ± 0.051.
As for UUAAGACUUGCAGUGAUGUUUAA, the “NF-kB luciferase reporter activity” value by setting is: (TNF 0 ng/mL) -0.92 ± 0.38; (TNF 40 ng/mL) 0.155 ± 0.07.
The like results for UUAUAAUACAACCUGAUAAGUG were, in that order, -0.295 ± 1.1 and -0.534 ± 0.029.
UUAUCAGAAUCUCCAGGGGUAC: the “NF-kB luciferase reporter activity” value runs as follows: (TNF 0 ng/mL) -0.469 ± 0.36; (TNF 40 ng/mL) -0.796 ± 0.17.
The like results for UUCAAGUAAUUCAGGAUAGGUU were, in that order, 0.218 ± 0.18 and 0.0275 ± 0.0019.
For UUCACAGGGAGGUGUCAUUUAU, in that order: 0.436 ± 0.13 and 0.0761 ± 0.082.
For UUCACAGUGGCUAAGUUCCGC, in that order: 0.203 ± 0.55 and 0.955 ± 0.096.
Regarding UUCCCUUUGUCAUCCUUCGCCU, the “NF-kB luciferase reporter activity” value by setting is: (TNF 0 ng/mL) 0.84 ± 0.23; (TNF 40 ng/mL) 0.327 ± 0.09.
For UUCUCCAAAAGAAAGCACUUUCUG, in that order: -0.171 ± 0.24 and -1.816 ± 0.017.
Consider UUCUCCAAAAGGGAGCACUUUC, for which the “NF-kB luciferase reporter activity” value by setting is: (TNF 0 ng/mL) 1.07 ± 0.25; (TNF 40 ng/mL) -1.42 ± 0.11.
The like results for UUGUACAUGGUAGGCUUUCAUU were, in that order, 0.596 ± 0.28 and 0.433 ± 0.025.
The like results for UUUAACAUGGGGGUACCUGCUG were, in that order, -0.207 ± 0.29 and 0.504 ± 0.055.
For UUUCAAGCCAGGGGGCGUUUUUC, in that order: 0.765 ± 0.45 and 0.885 ± 0.064.
As to UUUGUUCGUUCGGCUCGCGUGA, the “NF-kB luciferase reporter activity” value was -0.464 ± 1 (TNF 0 ng/mL) and -3.19 ± 0.074 (TNF 40 ng/mL).
The like results for UUUUGCACCUUUUGGAGUGAA were, in that order, 1.1 ± 0.92 and -0.163 ± 0.01.
